± gives the expanded uncertainty stated by the source.
Test: wn = mass fraction of the nth substance listed
Settings: 101.3 kPa, Liquid, Vibrating tube method

`CN(C)CCO` [2-(N,N-dimethylamino)ethanol] + O showed a mass density (293.15 K, w1 = 0.1) of 994.8 ± 5.2 kg/m3, a mass density (293.15 K, w1 = 0.2) of 992.8 ± 5.2 kg/m3 and a mass density (293.15 K, w1 = 0.3) of 990.8 ± 5.3 kg/m3. For the same compound, the mass density (293.15 K, w1 = 0.49) was 981.7 ± 5.5 kg/m3, the mass density (293.15 K, w1 = 0.64) was 963 ± 5.8 kg/m3 and the mass density (293.15 K, w1 = 0.69) was 955.3 ± 6.4 kg/m3. It also gave a mass density (293.15 K, w1 = 0.79) of 935.1 ± 6.7 kg/m3, a mass density (293.15 K, w1 = 0.9) of 911.3 ± 7.2 kg/m3 and a mass density (293.15 K, w1 = 1) of 882.2 ± 5.2 kg/m3. For the same compound, the mass density (298.15 K, w1 = 0.1) was 993.3 ± 5.2 kg/m3, the mass density (298.15 K, w1 = 0.2) was 990.8 ± 5.2 kg/m3 and the mass density (298.15 K, w1 = 0.3) was 988.1 ± 5.3 kg/m3. The mass density (298.15 K, w1 = 0.49) was 978 ± 5.5 kg/m3, the mass density (298.15 K, w1 = 0.64) was 959 ± 5.8 kg/m3 and the mass density (298.15 K, w1 = 0.69) was 951.3 ± 6.5 kg/m3. It also gave a mass density (298.15 K, w1 = 0.79) of 931.1 ± 6.7 kg/m3, a mass density (298.15 K, w1 = 0.9) of 906.9 ± 6.9 kg/m3 and a mass density (298.15 K, w1 = 1) of 884 ± 5.2 kg/m3. The mass density (303.15 K, w1 = 0.1) was 991.6 ± 5.3 kg/m3, the mass density (303.15 K, w1 = 0.2) was 988.6 ± 5.3 kg/m3 and the mass density (303.15 K, w1 = 0.3) was 985.2 ± 5.3 kg/m3. For the same compound, the mass density (303.15 K, w1 = 0.49) was 974.2 ± 5.5 kg/m3, the mass density (303.15 K, w1 = 0.64) was 954.9 ± 5.9 kg/m3 and the mass density (303.15 K, w1 = 0.69) was 947.2 ± 6.5 kg/m3. It also gave a mass density (303.15 K, w1 = 0.79) of 926.9 ± 6.8 kg/m3, a mass density (303.15 K, w1 = 0.9) of 902.2 ± 6.9 kg/m3 and a mass density (303.15 K, w1 = 1) of 879.8 ± 5.2 kg/m3. It also gave a mass density (308.15 K, w1 = 0.1) of 989.7 ± 5.3 kg/m3, a mass density (308.15 K, w1 = 0.2) of 986.2 ± 5.3 kg/m3 and a mass density (308.15 K, w1 = 0.3) of 982.2 ± 5.3 kg/m3. It also gave a mass density (308.15 K, w1 = 0.49) of 970.4 ± 5.5 kg/m3, a mass density (308.15 K, w1 = 0.64) of 950.8 ± 5.9 kg/m3 and a mass density (308.15 K, w1 = 0.69) of 943 ± 6.5 kg/m3. It also gave a mass density (308.15 K, w1 = 0.79) of 922.7 ± 6.8 kg/m3, a mass density (308.15 K, w1 = 0.9) of 897.9 ± 6.9 kg/m3 and a mass density (308.15 K, w1 = 1) of 875.5 ± 5.2 kg/m3. It also gave a mass density (313.15 K, w1 = 0.1) of 987.6 ± 5.3 kg/m3, a mass density (313.15 K, w1 = 0.2) of 983.6 ± 5.3 kg/m3 and a mass density (313.15 K, w1 = 0.3) of 979.1 ± 5.4 kg/m3. It also gave a mass density (313.15 K, w1 = 0.49) of 966.5 ± 5.5 kg/m3, a mass density (313.15 K, w1 = 0.64) of 946.6 ± 5.9 kg/m3 and a mass density (313.15 K, w1 = 0.69) of 938.8 ± 6.5 kg/m3. It also gave a mass density (313.15 K, w1 = 0.79) of 918.5 ± 6.8 kg/m3, a mass density (313.15 K, w1 = 0.9) of 893.5 ± 6.9 kg/m3 and a mass density (313.15 K, w1 = 1) of 871.2 ± 5.2 kg/m3. The mass density (318.15 K, w1 = 0.1) was 985.3 ± 5.3 kg/m3, the mass density (318.15 K, w1 = 0.2) was 980.9 ± 5.3 kg/m3 and the mass density (318.15 K, w1 = 0.3) was 975.8 ± 5.4 kg/m3. The mass density (318.15 K, w1 = 0.49) was 962.6 ± 5.6 kg/m3, the mass density (318.15 K, w1 = 0.64) was 942.4 ± 5.9 kg/m3 and the mass density (318.15 K, w1 = 0.69) was 934.5 ± 6.5 kg/m3. It also gave a mass density (318.15 K, w1 = 0.79) of 914.2 ± 6.8 kg/m3, a mass density (318.15 K, w1 = 0.9) of 889.1 ± 6.9 kg/m3 and a mass density (318.15 K, w1 = 1) of 866.8 ± 5.2 kg/m3. It also gave a mass density (323.15 K, w1 = 0.1) of 982.9 ± 5.3 kg/m3, a mass density (323.15 K, w1 = 0.2) of 978.4 ± 5.3 kg/m3 and a mass density (323.15 K, w1 = 0.3) of 972.5 ± 5.4 kg/m3. For the same compound, the mass density (323.15 K, w1 = 0.49) was 958.6 ± 5.6 kg/m3, the mass density (323.15 K, w1 = 0.64) was 938 ± 5.9 kg/m3 and the mass density (323.15 K, w1 = 0.69) was 930.1 ± 6.5 kg/m3. It also gave a mass density (323.15 K, w1 = 0.79) of 909.8 ± 6.8 kg/m3, a mass density (323.15 K, w1 = 0.9) of 884 ± 6.9 kg/m3 and a mass density (323.15 K, w1 = 1) of 862.4 ± 5.2 kg/m3. For the same compound, the mass density (328.15 K, w1 = 0.1) was 980.3 ± 5.3 kg/m3, the mass density (328.15 K, w1 = 0.2) was 975.1 ± 5.3 kg/m3 and the mass density (328.15 K, w1 = 0.3) was 969.1 ± 5.4 kg/m3. It also gave a mass density (328.15 K, w1 = 0.49) of 954.5 ± 5.6 kg/m3, a mass density (328.15 K, w1 = 0.64) of 933.7 ± 5.9 kg/m3 and a mass density (328.15 K, w1 = 0.69) of 925.7 ± 6.5 kg/m3. The mass density (328.15 K, w1 = 0.79) was 905.4 ± 6.8 kg/m3, the mass density (328.15 K, w1 = 0.9) was 879.3 ± 6.9 kg/m3 and the mass density (328.15 K, w1 = 1) was 858 ± 5.2 kg/m3. The mass density (333.15 K, w1 = 0.1) was 977.6 ± 5.3 kg/m3, the mass density (333.15 K, w1 = 0.2) was 972 ± 5.4 kg/m3 and the mass density (333.15 K, w1 = 0.3) was 965.5 ± 5.4 kg/m3. The mass density (333.15 K, w1 = 0.49) was 950.3 ± 5.6 kg/m3, the mass density (333.15 K, w1 = 0.64) was 929.2 ± 6 kg/m3 and the mass density (333.15 K, w1 = 0.69) was 921.2 ± 6.5 kg/m3. For the same compound, the mass density (333.15 K, w1 = 0.79) was 900.9 ± 6.8 kg/m3, the mass density (333.15 K, w1 = 0.9) was 874.8 ± 6.9 kg/m3 and the mass density (333.15 K, w1 = 1) was 853.5 ± 5.2 kg/m3. The mass density (338.15 K, w1 = 0.1) was 974.7 ± 5.4 kg/m3, the mass density (338.15 K, w1 = 0.2) was 968.8 ± 5.4 kg/m3 and the mass density (338.15 K, w1 = 0.3) was 961.9 ± 5.5 kg/m3. It also gave a mass density (338.15 K, w1 = 0.49) of 946.1 ± 5.6 kg/m3, a mass density (338.15 K, w1 = 0.64) of 924.7 ± 6 kg/m3 and a mass density (338.15 K, w1 = 0.69) of 916.7 ± 6.5 kg/m3. It also gave a mass density (338.15 K, w1 = 0.79) of 896.4 ± 6.8 kg/m3, a mass density (338.15 K, w1 = 0.9) of 870.4 ± 6.9 kg/m3 and a mass density (338.15 K, w1 = 1) of 849 ± 5.2 kg/m3. For the same compound, the mass density (343.15 K, w1 = 0.1) was 971.7 ± 5.4 kg/m3, the mass density (343.15 K, w1 = 0.2) was 965.5 ± 5.5 kg/m3 and the mass density (343.15 K, w1 = 0.3) was 958.2 ± 5.5 kg/m3. The mass density (343.15 K, w1 = 0.49) was 941.8 ± 5.7 kg/m3, the mass density (343.15 K, w1 = 0.64) was 920.2 ± 6 kg/m3 and the mass density (343.15 K, w1 = 0.69) was 912.1 ± 6.5 kg/m3. It also gave a mass density (343.15 K, w1 = 0.79) of 891.8 ± 6.8 kg/m3, a mass density (343.15 K, w1 = 0.9) of 865.8 ± 6.9 kg/m3 and a mass density (343.15 K, w1 = 1) of 844.4 ± 5.2 kg/m3.

— the NIST ThermoML archive (doi:10.1021/acs.jced.6b00888)
